The text below walks through data of patent publication US8367712B2, “Substituted amide beta secretase inhibitors” (Merck, Sharp & Dohme, Corp., priority 2004, dated 2013).

The target of this experiment is T1, sproBACE1 (soluble form of human BACE1) (Homo sapiens, UniProt P56817).
T1 construct: sBACE1, corresponding to amino acids 1-454; made in house; host or cells: Sf9 insect cells (baculovirus), secreted into the medium
Description: Peptide Hydrolysis Assay (HTRF, EuK-biotin labeled APPsw substrate). The class given is biochemical. To be noted: 7 nM sproBACE1, 25 nM EuK-biotin APPsw substrate, pH 5.0, 3 hr at 30° C. An excerpt:
A predicted soluble form of human BACE1 (sBACE1, corresponding to amino acids 1-454) was generated from the full length BACE1 cDNA (full length human BACE1 cDNA in pcDNA4/mycHisA construct; University of Toronto) by PCR using the advantage-GC cDNA PCR kit (Clontech, Palo Alto, Calif.). A HindIII/PmeI fragment from pcDNA4-sBACE1myc/His was blunt ended using Klenow and subcloned into the StuI site of pFASTBACI(A) (Invitrogen). A sBACE1mycHis recombinant bacmid was generated by transposition in DH10Bac cells(GIBCO/BRL). Subsequently, the sBACE1 mycHis bacmid construct was transfected into sf9 cells using CellFectin (Invitrogen, San Diego, Calif.) in order to generate recombinant baculovirus. […]
Proteins, were eluted from the Q-sepharose column with Buffer B (20 mM HEPES, pH 8.0, 500 mM NaCl). […] Peak protein fractions as determined by the Bradford Assay (Biorad, CA) were concentrated using a Centricon 30 concentrator (Millipore). sBACE1 purity was estimated to be ˜90% as assessed by SDS-PAGE and Commassie Blue staining. […]
IC50 determinations for inhibitors, (I), were determined by measuring the percent change of the relative fluorescence at 665 nm divided by the relative fluorescence at 620 nm, (665/620 ratio), in the presence of varying concentrations of I and a fixed concentration of enzyme and substrate. […]
On the technique in general: TR-FRET usually uses a lanthanide donor and a delayed reading to cut background.

T1 sequence (P56817 22-454): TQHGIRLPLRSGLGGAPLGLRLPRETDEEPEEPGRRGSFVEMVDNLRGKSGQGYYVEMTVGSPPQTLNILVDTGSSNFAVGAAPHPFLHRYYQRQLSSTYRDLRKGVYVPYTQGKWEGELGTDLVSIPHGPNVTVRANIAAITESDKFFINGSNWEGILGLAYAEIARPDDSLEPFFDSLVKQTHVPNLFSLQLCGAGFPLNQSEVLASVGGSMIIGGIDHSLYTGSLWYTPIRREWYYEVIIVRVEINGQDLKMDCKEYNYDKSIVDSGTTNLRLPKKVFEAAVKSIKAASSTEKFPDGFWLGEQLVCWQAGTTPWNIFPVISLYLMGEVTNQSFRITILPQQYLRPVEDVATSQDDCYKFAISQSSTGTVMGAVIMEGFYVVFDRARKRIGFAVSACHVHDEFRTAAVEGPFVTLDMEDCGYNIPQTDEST

Take `CC(=O)N[C@@H](Cc1cc(F)cc(OCc2ccncc2)c1)[C@H](O)[C@@H]1NCCN(Cc2ccccc2)C1=O`: the IC50 worked out at 186 nM.

In general, IC50 refers to the concentration that inhibits the measured activity by half.
